Reference: PubChem BioAssay AID2060898 (Molecular Pharmacology Branch, DTP, NCI, 2025)

System: 616215-338-R-J1-PDC complex spheroid viability
Assay: Anticancer human tumor 616215-338-R-J1-PDC patient-derived colon adenocarcinoma cell line growth inhibition [RAS]
Details: for IC50: curve of first compound; for viability, T/C: stronger effect = lower value
Method in brief: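 Tumour cells grown as complex spheroids with HUVEC endothelial cells and mesenchymal stem cells, treated with RAS pathway inhibitor combinations. Each agent spans half-log steps from near clinical Cmax, or 10 microM where Cmax is unknown.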

[1] = second compound 0.000949 µM, first compound 0.0316 µM
[2] = second compound 0.000949 µM, first compound 0.1 µM
[3] = second compound 0.000949 µM, first compound 0.316 µM
[4] = second compound 0.000949 µM, first compound 1 µM
[5] = second compound 0.000949 µM, first compound 3.16 µM
[6] = second compound 0.000949 µM, first compound 10 µM
[7] = second compound 0.003 µM, first compound 0.0316 µM
[8] = second compound 0.003 µM, first compound 0.1 µM
[9] = second compound 0.003 µM, first compound 0.316 µM
[10] = second compound 0.003 µM, first compound 1 µM
[11] = second compound 0.003 µM, first compound 3.16 µM
[12] = second compound 0.003 µM, first compound 10 µM
[13] = second compound 0.00949 µM, first compound 0.0316 µM
[14] = second compound 0.00949 µM, first compound 0.1 µM
[15] = second compound 0.00949 µM, first compound 0.316 µM
[16] = second compound 0.00949 µM, first compound 1 µM
[17] = second compound 0.00949 µM, first compound 3.16 µM
[18] = second compound 0.00949 µM, first compound 10 µM
[19] = second compound 0.03 µM, first compound 0.0316 µM
[20] = second compound 0.03 µM, first compound 0.1 µM
[21] = second compound 0.03 µM, first compound 0.316 µM
[22] = second compound 0.03 µM, first compound 1 µM
[23] = second compound 0.03 µM, first compound 3.16 µM
[24] = second compound 0.03 µM, first compound 10 µM
[25] = second compound 0.0949 µM, first compound 0.0316 µM
[26] = second compound 0.0949 µM, first compound 0.1 µM
[27] = second compound 0.0949 µM, first compound 0.316 µM
[28] = second compound 0.0949 µM, first compound 1 µM
[29] = second compound 0.0949 µM, first compound 3.16 µM
[30] = second compound 0.0949 µM, first compound 10 µM
[31] = second compound 0.3 µM, first compound 0.0316 µM
[32] = second compound 0.3 µM, first compound 0.1 µM
[33] = second compound 0.3 µM, first compound 0.316 µM
[34] = second compound 0.3 µM, first compound 1 µM
[35] = second compound 0.3 µM, first compound 3.16 µM
[36] = second compound 0.3 µM, first compound 10 µM
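Further: spheroids exposed to agents for seven days before viability readout.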
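Wherever viability, T/C is given: 100% = DMSO vehicle control viability.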

Compound `CC(=O)OC12COC1CC(O)C1(C)C(=O)C(O)C3=C(C)C(OC(=O)C(O)C(NC(=O)OC(C)(C)C)c4ccccc4)CC(O)(C(OC(=O)c4ccccc4)C21)C3(C)C` (centres undefined) + CCn1c(-c2cccnc2C(C)OC)c2c3cc(ccc31)N1CCOC(CC(NC(=O)C(C(C)C)N(C)C(=O)C3(F)CCN(C(=O)C#CC(C)(C)N(C)C)CC3)C(=O)N3CCCC(N3)C(=O)OCC(C)(C)C2)C1 has an IC50 (second compound 0.000949 µM) of less than 31.6 nM, an IC50 (second compound 0.003 µM) of less than 31.6 nM and an IC50 (second compound 0.00949 µM) of less than 31.6 nM. The IC50 (second compound 0.03 µM) was less than 31.6 nM, the IC50 (second compound 0.0949 µM) was less than 31.6 nM and the IC50 (second compound 0.3 µM) was less than 31.6 nM. The viability, T/C [1] was 30.9%, the viability, T/C [2] was 20.4% and the viability, T/C [3] was 19.5%. For the same compound, the viability, T/C [4] was 19.6%, the viability, T/C [5] was 22.6% and the viability, T/C [6] was 28.7%. For the same compound, the viability, T/C [7] was 30.8%, the viability, T/C [8] was 23.1% and the viability, T/C [9] was 20.3%. The viability, T/C [10] was 22.1%, the viability, T/C [11] was 24.2% and the viability, T/C [12] was 27%. For the same compound, the viability, T/C [13] was 28%, the viability, T/C [14] was 24.2% and the viability, T/C [15] was 19.9%. The viability, T/C [16] was 20.8%, the viability, T/C [17] was 24.8% and the viability, T/C [18] was 24.6%. For the same compound, the viability, T/C [19] was 25.9%, the viability, T/C [20] was 21.9% and the viability, T/C [21] was 18.3%. It also gave a viability, T/C [22] of 19%, a viability, T/C [23] of 22.6% and a viability, T/C [24] of 22.4%. For the same compound, the viability, T/C [25] was 33%, the viability, T/C [26] was 19.8% and the viability, T/C [27] was 19.8%. For the same compound, the viability, T/C [28] was 19%, the viability, T/C [29] was 22.2% and the viability, T/C [30] was 23.1%. For the same compound, the viability, T/C [31] was 28.8%, the viability, T/C [32] was 17.9% and the viability, T/C [33] was 17%. For the same compound, the viability, T/C [34] was 17.6%, the viability, T/C [35] was 20.8% and the viability, T/C [36] was 25.5%.
`CCC(CC)c1cc(NC2CCC(N)C2)n2nccc2n1` (centres undefined) + CCn1c(-c2cccnc2C(C)OC)c2c3cc(ccc31)N1CCOC(CC(NC(=O)C(C(C)C)N(C)C(=O)C3(F)CCN(C(=O)C#CC(C)(C)N(C)C)CC3)C(=O)N3CCCC(N3)C(=O)OCC(C)(C)C2)C1 was tested, and the IC50 (second compound 0.000949 µM) was 1820 nM, the IC50 (second compound 0.003 µM) was 1760 nM and the IC50 (second compound 0.00949 µM) was 1770 nM. For the same compound, the IC50 (second compound 0.03 µM) was 1770 nM, the IC50 (second compound 0.0949 µM) was 1810 nM and the IC50 (second compound 0.3 µM) was 1570 nM. It also gave a viability, T/C [1] of 107%, a viability, T/C [2] of 89.4% and a viability, T/C [3] of 109%. For the same compound, the viability, T/C [4] was 107%, the viability, T/C [5] was 0.55% and the viability, T/C [6] was 0.29%. The viability, T/C [7] was 101%, the viability, T/C [8] was 94.6% and the viability, T/C [9] was 89.1%. It also gave a viability, T/C [10] of 106%, a viability, T/C [11] of 0.5% and a viability, T/C [12] of 0.26%. The viability, T/C [13] was 92.2%, the viability, T/C [14] was 92.8% and the viability, T/C [15] was 101%. It also gave a viability, T/C [16] of 111%, a viability, T/C [17] of 0.46% and a viability, T/C [18] of 0.26%. It also gave a viability, T/C [19] of 101%, a viability, T/C [20] of 93.3% and a viability, T/C [21] of 91.2%. It also gave a viability, T/C [22] of 109%, a viability, T/C [23] of 0.45% and a viability, T/C [24] of 0.22%. For the same compound, the viability, T/C [25] was 103%, the viability, T/C [26] was 110% and the viability, T/C [27] was 106%. For the same compound, the viability, T/C [28] was 102%, the viability, T/C [29] was 0.44% and the viability, T/C [30] was 0.27%. It also gave a viability, T/C [31] of 114%, a viability, T/C [32] of 112% and a viability, T/C [33] of 116%. The viability, T/C [34] was 82.1%, the viability, T/C [35] was 0.46% and the viability, T/C [36] was 0.29%.
